Assay results: paper PMC3272584 (Bioorganic & medicinal chemistry, 2011)

System: rat neonatal microglia
Test: Short-term microglia cell viability: LDH release
Conditions: short-term cell viability (90 min)

SMILES | LDH50 (concentration that caused 50% release of the total LDH content of microglia cells) [µM]
[C-]#[N+][C@@]1(C)CC[C@H]2[C@H]3[C@@H](C(=C)CC[C@H]31)[C@H](CC(=C)C)C[C@@H]2C [Compound 1, 7-isocyano-11(20)-15(16)-amphilectadiene] | >10
[C-]#[N+]C(C)(C)C[C@@H]1C[C@H](C)[C@H]2CC[C@H](C)[C@@]3([N+]#[C-])CCC(=C)[C@@H]1[C@H]23 [Compound 2, (–)-8,15-diisocyano-11(20)-amphilectene] | >10
[C-]#[N+][C@@]12CCC(=C)[C@H]3[C@H](CC(C)(C)NC=O)C[C@H](C)[C@@H](CC[C@@H]1C)[C@@H]32 [Compound 4, 8-isocyano-11(20)-ene-15-amphilectaformamide] | >10
[C-]#[N+][C@@]12CCC(=C)[C@H]3[C@H](CC(C)(C)NC(=O)CN4CCC4=O)C[C@H](C)[C@@H](CC[C@@H]1C)[C@@H]32 [Compound 5, monamphilectine A] | >10
[C-]#[N+]C(C)(C)C[C@@H]1C[C@H](C)[C@H]2CC[C@H](C)[C@@]3([N+]#[C-])CCC(=O)[C@@H]1[C@H]23 [Compound 6, 8,15-diisocyano-11-amphilectone] | >10
